According to patent US7314858B2, “Retrocyclins: antiviral and antimicrobial peptides” (priority 2001, dated 2008):
pIC50: −log10 of the molar value. Values after ≈ are worked out from the molar mass of the structure shown. “Also recorded” adds a separate entry of the source. Read-outs that look alike come from different tables or passages of the source. Where a SMILES comes first, the peptide text is derived from it. Bridges are numbered along the chain shown (N, C = ends).

Legend:
HIV-1 strain IIIB = experiment: HIV-1 IIIB infection of CD4+ PBMC, p24 antigen ELISA; format: cell-based; details: for inhibition of HIV-1 replication (p24): CD4+ PBMC, IIIB (X4), peptide 10-20 μg/ml
Protocol: FIG. 5A-C. Anti-HIV-1 activity of retrocyclin. Two strains of HIV-1 and two types of human target cells were used. The IIIB strain is T-cell tropic (X4) and utilizes the CXCR4 co-receptor for entry; the JR-CSF strain is M-tropic (R5) and uses CCR5 for entry. PBMC signifies CD4^+-selected peripheral blood mononuclear cells. […] (A) Two concentrations of retrocyclin (2 μg/ml, 20 μg/ml), 20 μg/ml of the Rhesus circular defensin “RTD-1”, and 20 μg/ml of a horseshoe crab-derived peptide “T140”, reported to only prevent X4 infections, were tested in antiviral assays of against strain IIIB in H9 cells (n=2-6 per peptide; error bars indicate SEM). (B) To confirm our results with primary human cells, similar assays were performed utilizing IIIB virus and CD4^+ PBMC or (C) JR-CSF virus and CD4^+ PBMC. […] Average of duplicate experiments are reported for studies with PBMCs. Assay sensitivity=10 pg/ml.
Either HIV-1-permissive H9 cells were used as targets, or primary CD4^+ lymphocytes from HIV-1-seronegative donors generated from freshly purified peripheral blood mononuclear cells (PBMC) stimulated with a CD3-CD8 bispecific monoclonal antibody. […] These cells were maintained in RPMI containing 10% FCS supplemented with 2 mM glutamine, 100 U of penicillin/ml, 10 μg of streptomycin/ml, and 50 U of interleukin 2/ml (R10-50 media).
Examining the effect of adding retrocyclin at various times pre- and post-HIV-1 infection. […] Primary CD4^+ PBMC were incubated with HIV-IIIB (FIG. 6) or HIV-JR-CSF for 3 hours in the presence or absence of 20 μg/ml retrocyclin. The cells were subsequently washed in media, and incubated an additional 9 days. Retrocyclin (20 μg/ml) was added back to some of the cultures at time points specified in FIG. 6 and infection was monitored by p24 ELISA as previously described. […]

primary HIV-1 isolates = details: for pIC50: read-out: mean IC50; for pIC50 / mean IC50: seven subtype B strains
Description: Viral isolates. Primary HIV-1 isolates were obtained from Institutional Review Board-approved Centers for Disease Control and Prevention (CDC) Studies or from the National Institutes of Health Research and Reference Reagent Program and World Health Organization collaborative network. Detailed characteristics of the CDC isolates, including subtype determination based on the envelope region, and co-receptor usage using GHOST cell lines have been described elsewhere. For viruses obtained from the NIH Research and Reference Reagent Program, the reported subtype and co-receptor data were used as supplied. Viral stocks were generated by infecting CD8-depleted normal human peripheral blood mononuclear cells. After filtration through 0.22-μm filters, aliquots of the stocks were stored at −70° C. until used.
Reporter gene-based viral replication assay. JC53-BL cells, an HIV-1 reporter cell line derived from HeLa cells that expresses high levels of CD4 and the HIV co-receptors CXCR4 and CCR5, were a gift of Tranzyme Inc. (Birmingham, Ala.). The JC53-BL cells contain cassettes for luciferase and β-galactosidase, each driven by the HIV-1 LTR. HIV infection (tat production) can be detected either by measuring luciferase activity or by counting blue foci after staining the cells with “X-Gal” (5-Bromo-4-chloro-3-indolyl β-D-galactopyranoside), as described elsewhere in detail. The JC53-BL cells were maintained in Dulbecco's modified Eagle medium supplemented with 10% fetal calf serum. (HyClone, Logan, Utah), 2 mM glutamine (Gibco), 100 units per ml penicillin G and 100 μg/ml streptomycin (GIBCO™, Invitrogen Corp., San Diego, Calif.). Viral titers were determined by adding serial dilutions of the virus stocks, in triplicate, to wells containing 20,000 JC53-BL cells, after supplementing the above medium with 40 μg/ml DEAE (diethylaminoethyl)-dextran. After a 48 hour incubation at 37° C. in 5% CO2, the cells were fixed and stained for β galactosidase, and the blue foci were counted with a light microscope. Multiplicity of infection (MOI) values were taken from the infectious unit data.
In vitro infections were carried out in the presence or absence of θ-defensin peptides. Briefly, JC53-BL cells were harvested from T-150 flasks approximately 18 hours prior to starting the assay with 0.1 mM EDTA in 0.017 M PBS, pH 7.4. The cells were washed and transferred to sterile white 96-well plates (Thermo Labsystems, Franklin, Mass.) at a density of 20,000 cells in 50 μl of medium. […] After this 3-hour preincubation with peptides, viruses were added in media containing 40 μg/ml DEAE-dextran. The final volume was 200 μl per well, and the multiplicity of infection (viruses/cell) ranged from 0.009 to 0.65. After the plates had incubated at 37° C. in 5% CO2 for 48 hours, luciferase activity was measured with the Steady-Glo Luciferase Assay System (Promega, Madison, Wis.), using the manufacturer's lysis protocol. Relative light intensity was measured with a Tecan luminometer running Magellan software (Tecan, Research Triangle Park, N.C.) and reported as relative light units (RLU). Each plate contained three sets of quadruplicate controls: media-only (background), virus-only (peptide-free), and recombinant luciferase. Samples were run in duplicate and the % inhibition was calculated from the mean values using the formula: % Inhibition=1−(average RLU peptide+virus wells/average RLU virus only wells)×100.
Fifty-percent inhibitory concentration values (IC50) were calculated using the predicted exponential growth function in Microsoft Excel, which uses known x-y values to estimate a given x value (in this case concentration of peptide) that would correspond to a given y value (in this case IC50). Statistical comparisons were by paired t-tests, unless otherwise noted.

[1] = isolate 92BR023, subtype C/B, R5
[2] = isolate 92HT593, Haiti, subtype B, X4
[3] = isolate 92RW009, subtype C/A, R5/X4
[4] = isolate 92UG005, Uganda, subtype D, R5
[5] = isolate 93TH060, Thailand, CRF01-AE, R5
[6] = isolate 93UG053, Uganda, subtype D, R5
[7] = isolate 93US151, USA, subtype B, X4
[8] = isolate 98CN009, China, subtype C, R5
[9] = isolate 98TZ017, Tanzania, subtype C, R5
[10] = isolate 5157-1326, USA, subtype B, R5
[11] = isolate 192431, Nigeria, subtype C, X4
[12] = isolate 193358, Nigeria, subtype C, R5
[13] = isolate 196531, Cameroon, subtype A, R5
[14] = isolate 196554, Senegal, subtype A, R5
[15] = isolate HM14, Thailand, CRF01-AE, X4

CC[C@H](C)[C@@H]1NC(=O)CNC(=O)[C@H](CCCNC(=N)N)NC(=O)CNC(=O)[C@@H]2CSSC[C@H](NC1=O)C(=O)N[C@@H](CCCNC(=N)N)C(=O)N[C@H]1CSSC[C@H](NC(=O)[C@H](CCCNC(=N)N)NC(=O)[C@@H]3CSSC[C@H](NC(=O)[C@H]([C@@H](C)CC)NC1=O)C(=O)NCC(=O)N[C@@H](CCCNC(=N)N)C(=O)NCC(=O)N[C@@H]([C@@H](C)CC)C(=O)N3)C(=O)N[C@@H]([C@@H](C)CC)C(=O)N2 [RC-100, Retrocyclin] (cyclo(GICRCICGRGICRCICGR); disulfide 3-16, 5-14, 7-12)
reduction of p24 concentration (HIV-1 strain IIIB; 20 μg/ml added 24 hours after initial infection): ~1000 fold
inhibition of HIV-1 replication (p24) (HIV-1 strain IIIB): complete suppression; also recorded: uniformly protective
IC50 (mean±SEM, n=8) (primary HIV-1 isolates): 7.79 ± 1.16 µg/mL (≈ 4.06 µM)
IC50 Concentrations (primary HIV-1 isolates; [1]): 4.71 µg/mL (≈ 2.46 µM)
IC50 Concentrations (primary HIV-1 isolates; [2]): 5.73 µg/mL (≈ 2.99 µM)
IC50 Concentrations (primary HIV-1 isolates; [3]): 8.72 µg/mL (≈ 4.55 µM)
IC50 Concentrations (primary HIV-1 isolates; isolate 92RW024, subtype D/A, R5): 7.78 µg/mL (≈ 4.06 µM)
IC50 Concentrations (primary HIV-1 isolates; [4]): 5.18 µg/mL (≈ 2.7 µM)
IC50 Concentrations (primary HIV-1 isolates; isolate 92UG037, Uganda, subtype A, R5): 1.44 µg/mL (≈ 0.751 µM)
IC50 Concentrations (primary HIV-1 isolates; isolate 92US714, USA, subtype B, R5): >10 µg/mL
IC50 Concentrations (primary HIV-1 isolates; isolate 92US727, USA, subtype B, R5): 6.46 µg/mL (≈ 3.37 µM)
IC50 Concentrations (primary HIV-1 isolates; [5]): 7.39 µg/mL (≈ 3.85 µM)
IC50 Concentrations (primary HIV-1 isolates; [6]): 6.38 µg/mL (≈ 3.33 µM)
IC50 Concentrations (primary HIV-1 isolates; isolate 93UG059, subtype A/D, X4): 6.65 µg/mL (≈ 3.47 µM)
IC50 Concentrations (primary HIV-1 isolates; [7]): 1.69 µg/mL (≈ 0.881 µM)
IC50 Concentrations (primary HIV-1 isolates; isolate 94UG114, Uganda, subtype D, R5): 3.69 µg/mL (≈ 1.92 µM)
IC50 Concentrations (primary HIV-1 isolates; [8]): >10 µg/mL
IC50 Concentrations (primary HIV-1 isolates; [9]): >10 µg/mL
IC50 Concentrations (primary HIV-1 isolates; isolate 5148-1382, USA, subtype B, R5): 5.71 µg/mL (≈ 2.98 µM)
IC50 Concentrations (primary HIV-1 isolates; [10]): 4.64 µg/mL (≈ 2.42 µM)
IC50 Concentrations (primary HIV-1 isolates; isolate 5157-35097, USA, subtype B, R5X4): 6.29 µg/mL (≈ 3.28 µM)
IC50 Concentrations (primary HIV-1 isolates; [11]): 5.18 µg/mL (≈ 2.7 µM)
IC50 Concentrations (primary HIV-1 isolates; isolate 193317, Nigeria, subtype A, X4): >10 µg/mL
IC50 Concentrations (primary HIV-1 isolates; [12]): >10 µg/mL
IC50 Concentrations (primary HIV-1 isolates; [13]): >10 µg/mL
IC50 Concentrations (primary HIV-1 isolates; [14]): 5.73 µg/mL (≈ 2.99 µM)
IC50 Concentrations (primary HIV-1 isolates; [15]): 3.09 µg/mL (≈ 1.61 µM)
IC50 Concentrations (primary HIV-1 isolates; isolate RU132, Russia, subtype G, R5): 5.27 µg/mL (≈ 2.75 µM)
IC50 Concentrations (primary HIV-1 isolates; isolate RU570, subtype G, R5): 8.63 µg/mL (≈ 4.5 µM)
pIC50 (primary HIV-1 isolates): ~5.59
mean IC50 (primary HIV-1 isolates): approximately 5.0 μg/ml

CC[C@H](C)[C@@H]1NC(=O)CNC(=O)[C@H](CCCCN)NC(=O)CNC(=O)[C@@H]2CSSC[C@H](NC1=O)C(=O)N[C@@H](CCCNC(=N)N)C(=O)N[C@H]1CSSC[C@H](NC(=O)[C@H](CCCNC(=N)N)NC(=O)[C@@H]3CSSC[C@H](NC(=O)[C@H]([C@@H](C)CC)NC1=O)C(=O)NCC(=O)N[C@@H](CCCNC(=N)N)C(=O)NCC(=O)N[C@@H]([C@@H](C)CC)C(=O)N3)C(=O)N[C@@H]([C@@H](C)CC)C(=O)N2 [RC-101, R9K-Retrocyclin]
inhibition of HIV-1 replication (p24) (HIV-1 strain IIIB): as active as retrocyclin
IC50 (mean±SEM, n=8) (primary HIV-1 isolates): 2.93 ± 0.95 µg/mL (≈ 1.55 µM)
protective activity compared with retrocyclin-1 (primary HIV-1 isolates): more active than retrocyclin-1
IC50 Concentrations (primary HIV-1 isolates; [1]): 3.04 µg/mL (≈ 1.61 µM)
IC50 Concentrations (primary HIV-1 isolates; [2]): 0.76 µg/mL (≈ 0.402 µM)
IC50 Concentrations (primary HIV-1 isolates; [3]): 2.72 µg/mL (≈ 1.44 µM)
IC50 Concentrations (primary HIV-1 isolates; [4]): 1 µg/mL (≈ 0.529 µM)
IC50 Concentrations (primary HIV-1 isolates; [5]): 2.15 µg/mL (≈ 1.14 µM)
IC50 Concentrations (primary HIV-1 isolates; [6]): 1.54 µg/mL (≈ 0.815 µM)
IC50 Concentrations (primary HIV-1 isolates; [7]): 0.49 µg/mL (≈ 0.259 µM)
IC50 Concentrations (primary HIV-1 isolates; [8]): 8.53 µg/mL (≈ 4.51 µM)
IC50 Concentrations (primary HIV-1 isolates; [9]): 4.87 µg/mL (≈ 2.58 µM)
IC50 Concentrations (primary HIV-1 isolates; [10]): 3.59 µg/mL (≈ 1.9 µM)
IC50 Concentrations (primary HIV-1 isolates; [11]): 0.54 µg/mL (≈ 0.286 µM)
IC50 Concentrations (primary HIV-1 isolates; [12]): 2.75 µg/mL (≈ 1.45 µM)
IC50 Concentrations (primary HIV-1 isolates; [13]): 2.65 µg/mL (≈ 1.4 µM)
IC50 Concentrations (primary HIV-1 isolates; [14]): 0.51 µg/mL (≈ 0.27 µM)
IC50 Concentrations (primary HIV-1 isolates; [15]): 0.84 µg/mL (≈ 0.444 µM)
pIC50 (primary HIV-1 isolates): > 6.18
mean IC50 (primary HIV-1 isolates): < 1.25 µg/mL
protective activity compared with retrocyclin-1 (primary HIV-1 isolates; subtype D strains, 1.25, 2.5, 5 and 10 μg/ml): more active than retrocyclin-1
protective activity compared with retrocyclin-1 (primary HIV-1 isolates; subtype G and various recombinant viruses): greater protection than retrocyclin-1
